Source: article PMC11292009, “Mapping protein binding sites by photoreactive fragment pharmacophores” (Communications Chemistry, 2024)

Columns and labels:
Assay type in all cases: binding
[1] = test system: carbonic anhydrase II (CA); experiment: Intact protein MS photoaffinity labeling screen, carbonic anhydrase; conditions: intact protein MS after 10 min irradiation
Procedure: (§1) Using a plate-based format with one fragment per well, each fragment was incubated with the target proteins for 15 min to allow for the formation of non-covalent interactions. […] Finally, the results were directly analyzed from the plate using intact protein mass spectrometry by observing the mass additions that correspond to successful labeling (Fig. 2c, for labeling % values see Supplementary data). The library was first characterized against three benchmark proteins like carbonic anhydrase (CA), lysozyme (Lyo), and myoglobin (Myo).

[2] = test system: T1, BRD4-BD1; experiment: Intact MS photoaffinity labeling screen, BRD4-BD1 (302 nm, LCMS-TOF); conditions: for MS labeling percentage, BRD4: BRD4-BD1, 302 nm 10 min; for experimental hit status BRD4-BD1: 0/1 flag; for BRD4-BD1: experimental hit status flag (0/1)
T1 construct: screened the PhP library against the first bromodomain of BRD4 (BRD4-BD1); purchased GSK/GenScript
Procedure: as §1
(§2) The PhP library was screened against BRD4-BD1 and KRas^G12D as follows. […] The probe plate was placed on ice. 15 μL of protein stock solution (1 μM BRD4-BD1 (GSK/GenScript) or KRas^G12D (GSK/GenScript) in PBS buffer) was dispensed into wells containing fragments. The plate was left on ice for 15 min for incubation, then irradiated at 302 nm for 10 min, and centrifuged (1000 rpm, 1 min) to remove any bubbles. […] The deconvoluted spectra were analyzed using R Studio software.

[3] = test system: T2, KRas^G12D; experiment: Intact MS photoaffinity labeling screen, KRas G12D (302 nm, LCMS-TOF); conditions: for MS labeling percentage, KRas: KRas G12D, 302 nm 10 min; for experimental hit status KRAS-G12D: 0/1 flag; for KRAS-G12D: experimental hit status flag (0/1)
T2 construct: purchased GSK/GenScript
Procedure: as §1, §2

[4] = test system: lysozyme (Lyo); experiment: Intact protein MS photoaffinity labeling screen, lysozyme; conditions: intact protein MS after 10 min irradiation
Procedure: as §1

[5] = test system: myoglobin (Myo); experiment: Intact protein MS photoaffinity labeling screen, myoglobin; conditions: intact protein MS after 10 min irradiation
Procedure: as §1

[6] = test system: T3, STAT5B-NTD; experiment: Intact MS photoaffinity labeling screen, STAT5B-NTD (365 nm, UHPLC-MS); conditions: for MS labeling percentage, STAT5B: STAT5B-NTD, 365 nm 10 min, no photocatalyst; for experimental hit status STAT5B-NTD: 0/1 flag; for STAT5B-NTD: experimental hit status flag (0/1);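 as to MS labeling percentage, STAT5B: 0.17 µL of 100 mM DMSO fragment stock added to the protein sample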
T3 construct: His-SUMO (N, cleaved yes); made in house; host or cells: E. coli BL21 RILP
Procedure: STAT5B protein in 7 µM concentration in pH 7.4 PBS buffer was pre-incubated with 0.17 µL PhP (in 100 mM DMSO solution) for 1 h at room temperature in dark. Irradiation was carried out at 4 °C for 10 min using 365 nm UV lamp.
(§3) During the analysis, the column temperature was maintained at a constant 60 °C, and a sample volume of 3 µL was injected for each analysis. Data acquisition was conducted in positive ion mode within the m/z 100–2000 (mass-to-charge ratio) range. For the full protocol and spectra of the hits, see Supplementary Note 2.

[7] = test system: T3, STAT5B-NTD; experiment: Intact MS labeling screen, STAT5B-NTD conjugated with photocatalyst Ir-G2-PEG3-COOH (450 nm); conditions: 450 nm 10 min;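 also: 0.14 µL of 100 mM DMSO fragment stock added to the conjugate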
Procedure: For the photocatalysis experiments, 1.4 µL photocatalyst (in 1.4 mM DMSO solution, 10 eq) was pre-incubated with 1.5 µL coupling reagent (0.75 µL, 5.6 mM EDC (20 eq)+0.75 µL 4.2 mM NHS and 1.5 µL 2.1 mM (15 eq) BOP for 30 min in dark. 30 µL STAT5B-NTD (in 7 µM concentration) was added and incubated further at room temperature overnight or at 37 °C for 1 h in dark. After addition of 0.14 µL PhP (in 100 mM DMSO) the solution was further incubated in dark for 1 h. Irradiation was carried out using 450 nm LED lamp (7.6Vx0A) for 10 min at 4 °C.
as §3

[8] = PhP library sheet "PhP", binary flag printed as 0 or 1, key not given
[9] = hit flag 1/0, sheet PhP, photoaffinity labeling screen
[10] = sheet PhP, experimental hit status flag given as 0 or 1

SMILES: CC1CN(Cc2ccccc2NC(=O)CCC2(C)N=N2)CC(C)O1 (stereo not shown) [PhP078, CC1CN(CC(O1)C)Cc2ccccc2NC(=O)CCC3(C)N=N3]
- MS labeling percentage, CA [1]: 0.4%
- MS labeling percentage, BRD4 [2]: 0.4%
- BRD4-BD1 (experimental hit status) [2, 8]: 0
- MS labeling percentage, KRas [3]: 0%
- KRAS-G12D (experimental hit status) [3, 8]: 0
- MS labeling percentage, Lyo [4]: 0%
- MS labeling percentage, Myo [5]: 0.2%
- STAT5B-NTD (experimental hit status) [6, 8]: 0
- MS labeling percentage, STAT5B [6]: 0%
- MS labeling percentage, STAT5B+photocat [7]: 0.7%

SMILES: CC1(CCC(=O)N[C@@H](Cc2cccc(F)c2)CN2C(=O)c3ccccc3C2=O)N=N1 [PhP079, Fc(c1)cccc1C[C@H](NC(=O)CCC2(C)N=N2)CN(C3=O)C(=O)c(c34)cccc4]
- MS labeling percentage, CA [1]: 0.5%
- BRD4-BD1 (experimental hit status) [2, 8]: 0
- MS labeling percentage, KRas [3]: 0.5%
- KRAS-G12D (experimental hit status) [3, 8]: 0
- MS labeling percentage, Lyo [4]: 0.3%
- MS labeling percentage, Myo [5]: 0.4%
- STAT5B-NTD (experimental hit status) [6, 8]: 0
- MS labeling percentage, STAT5B [6]: 0%
- MS labeling percentage, STAT5B+photocat [7]: 1.2%

SMILES: CC1(CCC(=O)NCCCN2CCN(C(=O)OC(C)(C)C)CC2)N=N1 [PhP056, CC(C)(C)OC(=O)N1CCN(CC1)CCCNC(=O)CCC2(C)N=N2]
- MS labeling percentage, CA [1]: 0.3%
- MS labeling percentage, BRD4 [2]: 0.2%
- BRD4-BD1 (experimental hit status) [2, 9]: 0
- MS labeling percentage, KRas [3]: 0%
- KRAS-G12D (experimental hit status) [3, 9]: 0
- MS labeling percentage, Lyo [4]: 0%
- MS labeling percentage, Myo [5]: 0%
- MS labeling percentage, STAT5B [6]: 0%
- STAT5B-NTD (experimental hit status) [6, 9]: 0
- MS labeling percentage, STAT5B+photocat [7]: 1.2%

SMILES: CC1(CCC(=O)NC2CCCN(c3ncc[nH]c3=O)C2)N=N1 (stereo not shown) [PhP029, N1=NC1(C)CCC(=O)NC2CCCN(C2)c3ncc[nH]c3=O]
- MS labeling percentage, CA [1]: 0%
- experimental hit status BRD4-BD1 [2]: 0
- MS labeling percentage, BRD4 [2]: 0.2%
- experimental hit status KRAS-G12D [3]: 0
- MS labeling percentage, KRas [3]: 0%
- MS labeling percentage, Lyo [4]: 0%
- MS labeling percentage, Myo [5]: 0.1%
- experimental hit status STAT5B-NTD [6]: 0
- MS labeling percentage, STAT5B [6]: 0%
- MS labeling percentage, STAT5B+photocat [7]: 0.3%

SMILES: COc1nc(C)cc(C)c1CNC(=O)CCC1(C)N=N1 [PhP068, COc1nc(C)cc(C)c1CNC(=O)CCC2(C)N=N2]
- MS labeling percentage, CA [1]: 0.3%
- MS labeling percentage, BRD4 [2]: 1%
- BRD4-BD1 (experimental hit status) [2, 10]: 0
- MS labeling percentage, KRas [3]: 0%
- KRAS-G12D (experimental hit status) [3, 10]: 0
- MS labeling percentage, Lyo [4]: 0%
- MS labeling percentage, Myo [5]: 0.4%
- MS labeling percentage, STAT5B [6]: 1%
- STAT5B-NTD (experimental hit status) [6, 10]: 0
- MS labeling percentage, STAT5B+photocat [7]: 4.4%

SMILES: CC1(CCC(=O)NC2CCCC(NC(=O)OC(C)(C)C)C2)N=N1 (stereo not shown) [PhP015, CC(C)(C)OC(=O)NC1CCCC(C1)NC(=O)CCC2(C)N=N2]
- MS labeling percentage, CA [1]: 0.3%
- MS labeling percentage, BRD4 [2]: 0.3%
- BRD4-BD1 [2]: 0
- MS labeling percentage, KRas [3]: 0.6%
- KRAS-G12D [3]: 0
- MS labeling percentage, Lyo [4]: 1.1%
- MS labeling percentage, Myo [5]: 0.2%
- MS labeling percentage, STAT5B [6]: 1%
- STAT5B-NTD [6]: 0
- MS labeling percentage, STAT5B+photocat [7]: 1.6%

SMILES: Cc1ccc2[nH]c(CNC(=O)CCC3(C)N=N3)nc2c1 [PhP030, c1cc(C)cc(c12)nc([nH]2)CNC(=O)CCC3(C)N=N3]
- MS labeling percentage, CA [1]: 0.7%
- experimental hit status BRD4-BD1 [2]: 0
- MS labeling percentage, BRD4 [2]: 1.2%
- experimental hit status KRAS-G12D [3]: 0
- MS labeling percentage, KRas [3]: 1.4%
- MS labeling percentage, Lyo [4]: 0%
- MS labeling percentage, Myo [5]: 0.4%
- experimental hit status STAT5B-NTD [6]: 0
- MS labeling percentage, STAT5B [6]: 0%
- MS labeling percentage, STAT5B+photocat [7]: 0.7%

SMILES: Cc1n[nH]c(C)c1CCNC(=O)CCC1(C)N=N1 [PhP061, Cc1n[nH]c(C)c1CCNC(=O)CCC2(C)N=N2]
- MS labeling percentage, CA [1]: 0.2%
- MS labeling percentage, BRD4 [2]: 0.2%
- BRD4-BD1 (experimental hit status) [2, 10]: 0
- MS labeling percentage, KRas [3]: 0.1%
- KRAS-G12D (experimental hit status) [3, 10]: 0
- MS labeling percentage, Lyo [4]: 0%
- MS labeling percentage, Myo [5]: 0.2%
- MS labeling percentage, STAT5B [6]: 1%
- STAT5B-NTD (experimental hit status) [6, 10]: 0
- MS labeling percentage, STAT5B+photocat [7]: 0%

SMILES: CC1(CCC(=O)NCCc2nc3ccccc3[nH]2)N=N1 [PhP031, N1=NC1(C)CCC(=O)NCCc(n2)[nH]c(c23)cccc3]
- MS labeling percentage, CA [1]: 0.6%
- experimental hit status BRD4-BD1 [2]: 0
- MS labeling percentage, BRD4 [2]: 0.8%
- experimental hit status KRAS-G12D [3]: 0
- MS labeling percentage, KRas [3]: 0.4%
- MS labeling percentage, Lyo [4]: 0%
- MS labeling percentage, Myo [5]: 0.3%
- experimental hit status STAT5B-NTD [6]: 0
- MS labeling percentage, STAT5B [6]: 1%
- MS labeling percentage, STAT5B+photocat [7]: 0.5%

SMILES: CC1(CCC(=O)NCc2cncc3ccccc23)N=N1 [PhP008, N1=NC1(C)CCC(=O)NCc(cnc2)c(c23)cccc3]
- MS labeling percentage, CA [1]: 0.9%
- MS labeling percentage, BRD4 [2]: 0.5%
- BRD4-BD1 [2]: 0
- MS labeling percentage, KRas [3]: 1%
- KRAS-G12D [3]: 0
- MS labeling percentage, Lyo [4]: 0%
- MS labeling percentage, Myo [5]: 0.6%
- MS labeling percentage, STAT5B [6]: 2.9%
- STAT5B-NTD [6]: 0
- MS labeling percentage, STAT5B+photocat [7]: 19.6%

SMILES: Cc1cc2ncn(CC(O)CNC(=O)CCC3(C)N=N3)c2cc1C (stereo not shown) [PhP067, Cc(c1)c(C)cc(c12)n(cn2)CC(O)CNC(=O)CCC3(C)N=N3]
- MS labeling percentage, CA [1]: 0.2%
- MS labeling percentage, BRD4 [2]: 0.8%
- BRD4-BD1 (experimental hit status) [2, 10]: 0
- MS labeling percentage, KRas [3]: 0.6%
- KRAS-G12D (experimental hit status) [3, 10]: 0
- MS labeling percentage, Lyo [4]: 0%
- MS labeling percentage, Myo [5]: 0.5%
- MS labeling percentage, STAT5B [6]: 2%
- STAT5B-NTD (experimental hit status) [6, 10]: 0
- MS labeling percentage, STAT5B+photocat [7]: 0.3%

SMILES: COC(=O)C(Cc1c[nH]c2ccccc12)NC(=O)CCC1(C)N=N1 (stereo not shown) [PhP014, N1=NC1(C)CCC(=O)NC(C(=O)OC)Cc(c[nH]2)c(c23)cccc3]
- MS labeling percentage, CA [1]: 0.3%
- MS labeling percentage, BRD4 [2]: 0.4%
- BRD4-BD1 [2]: 0
- MS labeling percentage, KRas [3]: 1.3%
- KRAS-G12D [3]: 0
- MS labeling percentage, Lyo [4]: 0.3%
- MS labeling percentage, Myo [5]: 0.1%
- MS labeling percentage, STAT5B [6]: 2%
- STAT5B-NTD [6]: 0
- MS labeling percentage, STAT5B+photocat [7]: 7.7%

SMILES: Cn1cnc(CCNC(=O)CCC2(C)N=N2)c1 [PhP091, Cn1cnc(c1)CCNC(=O)CCC2(C)N=N2]
- MS labeling percentage, CA [1]: 0.7%
- MS labeling percentage, BRD4 [2]: 0.2%
- BRD4-BD1 (experimental hit status) [2, 8]: 0
- MS labeling percentage, KRas [3]: 0.2%
- KRAS-G12D (experimental hit status) [3, 8]: 0
- MS labeling percentage, Lyo [4]: 0%
- MS labeling percentage, Myo [5]: 0.1%
- STAT5B-NTD (experimental hit status) [6, 8]: 0
- MS labeling percentage, STAT5B [6]: 0%
- MS labeling percentage, STAT5B+photocat [7]: 0.3%

SMILES: CN(C)Cc1nc2ccc(NC(=O)CCC3(C)N=N3)cc2o1 [PhP055, CN(C)Cc(n1)oc(c12)cc(cc2)NC(=O)CCC3(C)N=N3]
- MS labeling percentage, CA [1]: 0%
- MS labeling percentage, BRD4 [2]: 0.7%
- BRD4-BD1 (experimental hit status) [2, 9]: 0
- MS labeling percentage, KRas [3]: 0.3%
- KRAS-G12D (experimental hit status) [3, 9]: 0
- MS labeling percentage, Lyo [4]: 0%
- MS labeling percentage, Myo [5]: 0%
- MS labeling percentage, STAT5B [6]: 0%
- STAT5B-NTD (experimental hit status) [6, 9]: 0
- MS labeling percentage, STAT5B+photocat [7]: 0.8%
